What was measured:
GAPDH = molecular target: T1, GAPDH (Rattus norvegicus, UniProt P04797); experiment: GAPDH glycolytic activity in cultured cardiac cells; format: cell-based; conditions: cardiac myocytes, 1 nM, 48 hours
T1 construct: endogenous in cells; host or cells: cultured rat neonatal cardiac cells (from Sprague-Dawley rats)
Protocol: (§1) FIG. 4A-4D depict a deprenyl derivative compound of the present invention that blocks GAPDH-Siah1 binding. […] FIG. 4B is a graph depicting inhibition of GAPDH-Siah1 binding by the RR compound in vitro. GAPDH was pre-incubated with the RR compound, then GST-Siah1 was added and binding was assessed by GST-agarose pull down followed by western blotting. The graph represents quantification results of the blots from 6 experiments. FIG. 4C is a pair of graphs depicting in vitro MAO activity. FIG. 4D is a bar graph showing glycolytic activity in cultured rat neonatal cardiac cells exposed to 1 nM RR for 48 hours *p<0.05.
HAT activity assay, MEF2 activity assay, MAO activity assay, GAPDH assay: p300 HAT activity was measured using commercially available kit (Biovision), using immunoprecipitation with p300 antibody (Circulation 118, 934-946 (2008)). MEF2 activity was measured using luciferase reporter assay (Panomics). MAO activity assay was measured using commercially available kit (Peninsula Laboratory). GAPDH activity was measured as previously described in (Nat. Cell Biol., 7, 665-674 (2005)). PUMA mRNA expression was determined by real time RT-PCR using SYBR Green fluorescence on a LightCycler instrument (Roche Applied Science). Expression of the gene of interest was divided by the housekeeping gene glyceraldehyde-3-phosphate dehydrogenase (GAPDH) and presented as fold induction of control. […]

GAPDH-Siah1 binding = GAPDH-Siah1 binding (Homo sapiens, UniProt P04406); experiment: in vitro binding of purified recombinant GAPDH and GST-Siah1 (GST-agarose pull down, western blot); conditions: GAPDH pre-incubated with compound
GAPDH-Siah1 binding, sequence (P04406 whole entry): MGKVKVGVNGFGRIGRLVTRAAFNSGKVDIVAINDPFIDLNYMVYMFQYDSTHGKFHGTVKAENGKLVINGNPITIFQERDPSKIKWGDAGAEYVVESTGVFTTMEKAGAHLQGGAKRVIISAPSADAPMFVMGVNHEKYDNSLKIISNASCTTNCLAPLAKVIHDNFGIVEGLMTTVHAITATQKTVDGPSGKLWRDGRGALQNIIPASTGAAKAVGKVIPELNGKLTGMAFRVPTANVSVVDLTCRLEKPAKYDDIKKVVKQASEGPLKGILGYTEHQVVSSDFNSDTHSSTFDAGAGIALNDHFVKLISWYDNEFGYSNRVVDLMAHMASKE
Protocol: as §1
To test whether TAC elicits nuclear translocation of GAPDH and activates p300, a specific tool to intervene GAPDH nuclear translocation is needed. Several structural analogues of deprenyl that blocked GAPDH-Siah1 binding and the nuclear GAPDH cascade were previously screened (data not shown).

p300 HAT / MEF2 = experiment: p300 acetylation and MEF2 luciferase reporter activity in cardiac myocytes treated with ET1; format: cell-based, rat
Protocol: (§2) Rat neonatal cardiac myocyte culture: Rat neonatal cardiac myocytes (RNCM) were isolated from 1-2-day-old Sprague-Dawley rats, and cultured cells stimulated with 0.05 μM Endothelin-1, with or without 1 nM RR compound for 48 hours. Protein synthesis was assessed by [^3H]leucine incorporation. Adenoviral transfection of wild-type GAPDH and K227A mutant GAPDH was performed at 10-30 moi as previously described.
(§3) HAT activity assay, MEF2 activity assay, MAO activity assay, GAPDH assay: p300 HAT activity was measured using commercially available kit (Biovision), using immunoprecipitation with p300 antibody (Circulation 118, 934-946 (2008)). MEF2 activity was measured using luciferase reporter assay (Panomics). MAO activity assay was measured using commercially available kit (Peninsula Laboratory). GAPDH activity was measured as previously described in (Nat. Cell Biol., 7, 665-674 (2005)). PUMA mRNA expression was determined by real time RT-PCR using SYBR Green fluorescence on a LightCycler instrument (Roche Applied Science). Expression of the gene of interest was divided by the housekeeping gene glyceraldehyde-3-phosphate dehydrogenase (GAPDH) and presented as fold induction of control.
(§4) Augmented p300 activity reportedly leads to cardiac hypertrophic response via activation of myocyte enhancer factor 2 (MEF2), a master transcriptional factor of mal-adaptive cardiac hypertrophy. Thus, acylation of p300, and activity of MEF2 was tested, together with several outcome measures for hypertrophy response. In cardiac myocytes treated with ET1, augmentation of p300 acylation (reflecting p300 HAT activity), an augmented activity of MEF2, and increases in cell surface area, protein synthesis assayed by ^3H-leucine uptake, and B-type natriuretic peptide (BNP) expression were observed (FIGS. 5D, E).

[1] = tested on: GAPDH-Siah1 binding / nuclear translocation of GAPDH; experiment: GAPDH nuclear cascade in cardiac myocytes exposed to ET1 (co-immunoprecipitation, immunostaining, fractionation); format: cell-based, rat
Protocol: Physiological analysis, histological analysis: Echocardiography and pressure-volume loop studies were performed as described previously (Takimoto et al., Nat. Med., 11, 214-222 (2005)). 10% formalin fixed heart samples were embedded in paraffin, sectioned and stained for myocyte size (WGA staining) and fibrosis (Masson Trichrome staining) as described previously (Zhang et al., J. Am. Coll. Cardiol., 56, 2021-2030 (2010)). Isolated adult cardiac myocyte or rat neonatal cardiac myocyte was fixed with 50% methanol/50% acetone and stained with antibodies against GAPDH (Millipore), sulphonated GAPDH or HA as previously described.
as §2
(§5) Protein and RNA analysis: Total RNA was isolated from cells or left ventricular myocardium with Trizol (Molecular Research Center, Inc, Cincinnati, Ohio) and analyzed by real-time polymerase chain reaction (PCR) with TaqMan probes (Applied Biosystems, Foster City, Calif.). Results were normalized to GAPDH or 18S RNA. Cell lysates or nuclear extracts were obtained from cultured myocytes or ventricular tissue, resolved by SDS-polyacrylamide gel electrophoresis, subjected to immunoblotting and imaged by chemiluminescence as previously described.
To test a role for the GAPDH-p300 signaling in heart hypertrophy, the Gq agonist ET1 was used as a trigger. ET1 is reported to elicit oxidative stress by activating NADPD oxidase and stress is known as a central contributor to cardiac hypertrophic response including pressure-load hypertrophy, as in the TAC model. Thus, cardiac myocytes were exposed to ET1 at 0.05 μM for about 48 hours and the effects on GAPDH signaling was examined. […]

DN-DISC1 mice = experiment: three chamber social novelty test in DN-DISC1 mice; format: in vivo, mouse
Excerpt: DN-DISC1 mice express a putative dominant-negative C-terminal truncated DISC1 under expression control of the α CaMKII promoter. Homozygous DN-DISC1 mice were created by systematic cross-breeding of heterozygotes followed by interbreeding of homozygotes at the Johns Hopkins School of Medicine. In the current studies only homozygous males were used. At 3 to 6 months of age, mice were transferred to the Neurogenetics and Behavior Center, Johns Hopkins University, for behavioral testing. They were housed three or four to a cage under a 12 hour light/dark cycle (lights on at 7:00 A.M to 7:00 P.M) and weighed between 25 and 35 grams prior to food deprivation.
Measurement of Social Novelty Test: Wt and DN-DISC1 mice were treated with RR compound or control starting at postnatal day 35 (0.25 mg/kg, i.p./day) and continuing throughout the three-chamber social interaction test in adulthood as described in Johnson et al., supra.
The inventors treated DN-DISC1 mice with RR starting at postnatal day 35 (0.25 mg/kg, i.p./day) and continuing throughout the three-chamber social interaction test in adulthood.

[2] = tested on: rat neonatal cardiac myocytes; experiment: hypertrophy response of rat neonatal cardiac myocytes to ET1; format: cell-based; conditions: ET1-treated cardiac myocytes, 1 nM
Protocol: as §2, §5, §4

TAC hearts [3] = experiment: TAC chronic pressure-overload cardiac hypertrophy model, treatment from time of constriction; format: in vivo, mouse
Protocol: Cardiac animal models: All protocols were approved by Animal Care and Use Committee of the Johns Hopkins University. TAC was performed in C57/BL6 mice (Jackson Laboratory) as previously described in (Nat. Med., 11, 214-222 (2005), J. Clin. Invest., 119, 408-420 (2009), J. Am. Coll. Cardiol., 56, 2021-2030 (2010)). Physiological analysis, histological analysis: Echocardiography and pressure-volume loop studies were performed as described previously (Takimoto et al., Nat. Med., 11, 214-222 (2005)). 10% formalin fixed heart samples were embedded in paraffin, sectioned and stained for myocyte size (WGA staining) and fibrosis (Masson Trichrome staining) as described previously (Zhang et al., J. Am. Coll. Cardiol., 56, 2021-2030 (2010)). Isolated adult cardiac myocyte or rat neonatal cardiac myocyte was fixed with 50% methanol/50% acetone and stained with antibodies against GAPDH (Millipore), sulphonated GAPDH or HA as previously described. HAT activity assay, MEF2 activity assay, MAO activity assay, GAPDH assay: p300 HAT activity was measured using commercially available kit (Biovision), using immunoprecipitation with p300 antibody (Circulation 118, 934-946 (2008)). MEF2 activity was measured using luciferase reporter assay (Panomics). MAO activity assay was measured using commercially available kit (Peninsula Laboratory). GAPDH activity was measured as previously described in (Nat. Cell Biol., 7, 665-674 (2005)). PUMA mRNA expression was determined by real time RT-PCR using SYBR Green fluorescence on a LightCycler instrument (Roche Applied Science). Expression of the gene of interest was divided by the housekeeping gene glyceraldehyde-3-phosphate dehydrogenase (GAPDH) and presented as fold induction of control. Protein and RNA analysis: Total RNA was isolated from cells or left ventricular myocardium with Trizol (Molecular Research Center, Inc, Cincinnati, Ohio) and analyzed by real-time polymerase chain reaction (PCR) with TaqMan probes (Applied Biosystems, Foster City, Calif.). Results were normalized to GAPDH or 18S RNA. Cell lysates or nuclear extracts were obtained from cultured myocytes or ventricular tissue, resolved by SDS-polyacrylamide gel electrophoresis, subjected to immunoblotting and imaged by chemiluminescence as previously described. To understand the pathology underlying heart hypertrophy, chronic pressure overload induced by transverse aorta constriction (TAC) is used as an established experimental animal model. Heart hypertrophy is evident at 7 to 10 days after the constriction, which leads to irreversible functional defects in 9 weeks. In the present study, the TAC model was employed and identified GAPDH as a key conveyer of the pathological stress signal to nuclear p300, resulting in disruption of critical homeostasis in vivo. In the present invention, the significance of the nuclear GAPDH cascade in vivo has been shown. With this understanding there is also provided novel therapeutic methods of treatment of stress induced disorders, including, for example, cardiac hypertrophy, which are urgent and very important medical needs.

MAO-A/B = experiment: MAO activity assay in cultured myocytes; format: cell-based, rat; conditions: concentrations between 0.1 nM and 10^5 nM
Protocol: as §3
A major challenge to identify a compound that selectively blocks the nuclear GAPDH cascade is their potential inhibition of monoamine oxidases (MAOs), which deprenyl originally harbors. Thus, it was examined whether RR inhibits MAO-A/B in cultured myocytes and a dramatic contrast was observed between RR and deprenyl. There was no inhibition of MAOs by RR in a wide range of concentrations between 0.1 nM and 10^5 nM concentrations (FIG. 4C).

TAC hearts [4] = experiment: TAC model, delayed RR treatment of pre-existing cardiac hypertrophy; format: in vivo, mouse
Protocol: Cardiac animal models: All protocols were approved by Animal Care and Use Committee of the Johns Hopkins University. TAC was performed in C57/BL6 mice (Jackson Laboratory) as previously described in (Nat. Med., 11, 214-222 (2005), J. Clin. Invest., 119, 408-420 (2009), J. Am. Coll. Cardiol., 56, 2021-2030 (2010)). Physiological analysis, histological analysis: Echocardiography and pressure-volume loop studies were performed as described previously (Takimoto et al., Nat. Med., 11, 214-222 (2005)). 10% formalin fixed heart samples were embedded in paraffin, sectioned and stained for myocyte size (WGA staining) and fibrosis (Masson Trichrome staining) as described previously (Zhang et al., J. Am. Coll. Cardiol., 56, 2021-2030 (2010)). Isolated adult cardiac myocyte or rat neonatal cardiac myocyte was fixed with 50% methanol/50% acetone and stained with antibodies against GAPDH (Millipore), sulphonated GAPDH or HA as previously described. Protein and RNA analysis: Total RNA was isolated from cells or left ventricular myocardium with Trizol (Molecular Research Center, Inc, Cincinnati, Ohio) and analyzed by real-time polymerase chain reaction (PCR) with TaqMan probes (Applied Biosystems, Foster City, Calif.). Results were normalized to GAPDH or 18S RNA. Cell lysates or nuclear extracts were obtained from cultured myocytes or ventricular tissue, resolved by SDS-polyacrylamide gel electrophoresis, subjected to immunoblotting and imaged by chemiluminescence as previously described. In most clinical settings, medication and treatment starts only after pathological changes occur at least to some extent.

[5] = ET1-treated cardiac myocytes, 1 nM
[6] = ET1 exposure, co-treatment with RR
[7] = 0.25 mg/kg/day i.p. from constriction, measured after 10th day (TAC10)
[8] = pressure volume loop analysis, RR versus vehicle treatment

T1 sequence (P04797 whole entry): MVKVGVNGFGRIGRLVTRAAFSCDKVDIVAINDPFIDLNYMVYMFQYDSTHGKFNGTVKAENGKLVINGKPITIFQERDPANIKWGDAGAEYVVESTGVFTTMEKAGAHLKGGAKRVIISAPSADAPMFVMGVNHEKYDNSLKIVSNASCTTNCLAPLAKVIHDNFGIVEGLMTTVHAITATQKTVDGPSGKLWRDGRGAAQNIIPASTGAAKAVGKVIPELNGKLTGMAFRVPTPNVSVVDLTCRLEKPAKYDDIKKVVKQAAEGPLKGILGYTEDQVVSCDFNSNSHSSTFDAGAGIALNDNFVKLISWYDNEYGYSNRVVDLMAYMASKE

GAPDH glycolytic activity (GAPDH): did not show any influence
augmentation of p300 acylation (reflecting p300 HAT activity) (p300 HAT / MEF2; [5]): clearly blocked
augmented activity of MEF2 (p300 HAT / MEF2; [5]): clearly blocked
augmentation of p300 acetylation (reflecting p300 HAT activity) in the nucleus (p300 HAT / MEF2; [6]): blocked
GAPDH-Siah1 binding augmented by ET1 ([1]; ET1 0.05 μM about 48 hours, co-administration of RR): normalized
nuclear translocation of GAPDH in response to ET1 ([1]; ET1 0.05 μM, co-treatment 1 nM): blocked
accumulation of sulphonated GAPDH in the nucleus [1, 6]: blocked
SMILES: C#CCN1[C@H](C)Cc2ccccc2[C@H]1C [RR, (1R,3R)-1,3-dimethyl-2-propargyl-1,2,3,4-tetrahydroisoquinoline]
GAPDH-Siah1 interaction in vitro (GAPDH-Siah1 binding): blocked the interaction at nanomolar concentrations
social deficit (impaired social recognition) (DN-DISC1 mice; 0.25 mg/kg, i.p./day from postnatal day 35 through testing in adulthood): ameliorated the social deficit
sniffing preference for stranger versus familiar mouse (DN-DISC1 mice; DISC1 mice treated with RR (n=7), p<0.05): preferentially sniffed the stranger mouse over the familiar mouse
PUMA expression [2]: unchanged
increase in B-type natriuretic peptide (BNP) expression [2]: clearly blocked
increase in cell surface area [2]: clearly blocked
increase in protein synthesis assayed by 3H-leucine uptake [2]: clearly blocked
levels of nuclear GAPDH in TAC hearts (TAC hearts [3]; [7]): dramatically reduced
levels of p300 HAT activity in TAC hearts (TAC hearts [3]; [7]): dramatically reduced
cardiac hypertrophy remodeling assessed by cardiac myocyte cell size (TAC hearts [3]; 0.25 mg/kg/day i.p., TAC): ameliorated
cardiac hypertrophy remodeling assessed by fibrosis (TAC hearts [3]; 0.25 mg/kg/day i.p., TAC): ameliorated
cardiac hypertrophy remodeling assessed by heart weight (TAC hearts [3]; 0.25 mg/kg/day i.p., TAC): ameliorated
TAC-induced left ventricular dilatation (LV-EDD) (TAC hearts [3]; echocardiogram): significantly inhibited
TAC-induced reduction in Fractional Shortening (% FS) (TAC hearts [3]; echocardiogram): significantly inhibited
cardiac performance despite sustained pressure-overload stress (TAC hearts [3]; invasive hemodynamic study, pressure volume loop analysis): improvement of cardiac performance
pathological gene expression profile: down-regulation of calcium handling proteins (TAC hearts [3]; myocardial mRNA, TAC): significantly improved or normalized
pathological gene expression profile: fetal gene re-expression (BNP, β-MHC) (TAC hearts [3]; myocardial mRNA, TAC): significantly improved or normalized
diastolic relaxation properties (Tau) (TAC hearts [3]; [8]): significantly better
systolic function (dPdtmx) (TAC hearts [3]; [8]): significantly better
inhibition of MAOs (MAO-A/B): no inhibition
expression profile of cardiac fetal gene (BNP) (TAC hearts [4]; delayed treatment, RR-treated versus vehicle group): significant improvement
cardiac myocyte size (terminal postmortem assessment) (TAC hearts [4]; treatment initiated 1 week after TAC, about two weeks): smaller
further LV mass increase from sustained pressure overload (TAC hearts [4]; treatment initiated 1 week after TAC, about two weeks of treatment, echocardiogram): significantly blocked

Reference: patent US10292980B2, “GAPDH cascade inhibitor compounds and methods of use and treatment of stress induced disorders including mental illness” (THE JOHNS HOPKINS UNIVERSITY, priority 2012, dated 2019)
